Earlier results on four compounds are cited in US9669111B2, “Device for the diagnosis of inflammatory tissues in dental applications” (THOMMEN MEDICAL AG, priority 2012, dated 2017).

Where a name gives a salt, the structure may show the parent alone.

The test system of data set [1] is human volunteers (bitter taste). The settings on record: reciprocal of the dilution barely noticed as bitter; reference for calibration.
In data set [2] the test system is human tongue. The settings on record: for concentration sensed down to (taste recognition): human tongue, average human.

Consider `C=C[C@H]1C[N@@]2CC[C@H]1C[C@H]2[C@H](O)c1ccnc2ccc(OC)cc12` [quinine-HCl], for which, in data set [1], the bitter value is listed as 200,000. Regarding `C=C[C@H]1C[N@@]2CC[C@H]1C[C@H]2[C@H](O)c1ccnc2ccc(OC)cc12` [Quinine sulfate], the “concentration sensed down to (taste recognition)” value in data set [2] is given as 0.0004 mM.

On to `C=C[C@H]1C[N@@]2CC[C@H]1C[C@H]2[C@H](O)c1ccnc2ccc(OC)cc12` [quinine], for which the sensory recognition threshold result in data set [2] (human) was “about 0.0004 mmol/L”.

For `O=C1NS(=O)(=O)c2ccccc21` [saccharin], the “concentration sensed down to (taste recognition)” value in data set [2] is recorded as 0.02 mM.
